Test results as given in ChEMBL document CHEMBL4004887, “Design, synthesis and in vitro activity of 1,4-disubstituted piperazines and piperidines as triple reuptake inhibitors” (Bioorg Med Chem, 2017).

Legend:
Format in all cases: cell-based
[1] = molecular target: Sodium-dependent dopamine transporter (Homo sapiens, UniProt Q01959); test: Inhibition of […] reuptake in human DAT expressed in HEK293 cells by microbeta liquid scintillation counting method
[2] = molecular target: Sodium-dependent noradrenaline transporter (Homo sapiens, UniProt P23975); test: Inhibition of […] reuptake in human NET expressed in HEK293 cells by microbeta liquid scintillation counting method
Sodium-dependent noradrenaline transporter, sequence (P23975 whole entry): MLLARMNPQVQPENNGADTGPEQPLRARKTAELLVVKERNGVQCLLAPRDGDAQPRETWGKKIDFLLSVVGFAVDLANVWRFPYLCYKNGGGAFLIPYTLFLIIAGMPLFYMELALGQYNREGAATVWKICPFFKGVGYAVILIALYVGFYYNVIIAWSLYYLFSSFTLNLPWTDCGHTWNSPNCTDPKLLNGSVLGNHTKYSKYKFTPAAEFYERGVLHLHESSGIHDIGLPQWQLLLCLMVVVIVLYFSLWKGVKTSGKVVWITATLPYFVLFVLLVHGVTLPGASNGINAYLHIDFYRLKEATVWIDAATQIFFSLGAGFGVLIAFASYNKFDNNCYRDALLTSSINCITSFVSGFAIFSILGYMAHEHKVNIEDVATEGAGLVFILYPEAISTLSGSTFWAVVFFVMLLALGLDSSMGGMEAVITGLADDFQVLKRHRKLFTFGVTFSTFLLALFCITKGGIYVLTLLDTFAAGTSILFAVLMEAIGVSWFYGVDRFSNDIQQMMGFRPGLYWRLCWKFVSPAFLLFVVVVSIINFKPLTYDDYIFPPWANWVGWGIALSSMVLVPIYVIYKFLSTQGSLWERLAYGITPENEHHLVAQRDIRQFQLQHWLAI

[3] = molecular target: Sodium-dependent serotonin transporter (Homo sapiens, UniProt P31645); test: Inhibition of [3H]-5-hydroxytryptamine reuptake in human SERT expressed in HEK293 cells by microbeta liquid scintillation counting method
Sodium-dependent serotonin transporter, sequence (P31645 whole entry): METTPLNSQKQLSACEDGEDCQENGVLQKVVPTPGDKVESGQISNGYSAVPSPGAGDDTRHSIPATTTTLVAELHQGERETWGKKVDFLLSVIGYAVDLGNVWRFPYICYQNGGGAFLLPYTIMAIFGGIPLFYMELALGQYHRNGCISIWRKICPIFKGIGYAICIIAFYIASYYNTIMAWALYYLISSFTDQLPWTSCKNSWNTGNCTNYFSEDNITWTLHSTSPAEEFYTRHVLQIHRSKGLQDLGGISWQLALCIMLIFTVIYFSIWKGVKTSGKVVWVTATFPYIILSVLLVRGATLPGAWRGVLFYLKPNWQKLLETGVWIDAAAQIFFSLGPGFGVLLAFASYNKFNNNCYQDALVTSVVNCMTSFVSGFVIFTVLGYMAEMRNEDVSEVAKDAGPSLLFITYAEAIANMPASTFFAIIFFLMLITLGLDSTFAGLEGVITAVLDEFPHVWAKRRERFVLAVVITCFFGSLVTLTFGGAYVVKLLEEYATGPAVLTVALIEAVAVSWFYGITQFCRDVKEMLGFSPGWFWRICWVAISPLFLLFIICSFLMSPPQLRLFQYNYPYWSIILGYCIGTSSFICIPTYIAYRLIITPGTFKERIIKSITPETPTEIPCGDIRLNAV

Sodium-dependent dopamine transporter, sequence (Q01959 whole entry): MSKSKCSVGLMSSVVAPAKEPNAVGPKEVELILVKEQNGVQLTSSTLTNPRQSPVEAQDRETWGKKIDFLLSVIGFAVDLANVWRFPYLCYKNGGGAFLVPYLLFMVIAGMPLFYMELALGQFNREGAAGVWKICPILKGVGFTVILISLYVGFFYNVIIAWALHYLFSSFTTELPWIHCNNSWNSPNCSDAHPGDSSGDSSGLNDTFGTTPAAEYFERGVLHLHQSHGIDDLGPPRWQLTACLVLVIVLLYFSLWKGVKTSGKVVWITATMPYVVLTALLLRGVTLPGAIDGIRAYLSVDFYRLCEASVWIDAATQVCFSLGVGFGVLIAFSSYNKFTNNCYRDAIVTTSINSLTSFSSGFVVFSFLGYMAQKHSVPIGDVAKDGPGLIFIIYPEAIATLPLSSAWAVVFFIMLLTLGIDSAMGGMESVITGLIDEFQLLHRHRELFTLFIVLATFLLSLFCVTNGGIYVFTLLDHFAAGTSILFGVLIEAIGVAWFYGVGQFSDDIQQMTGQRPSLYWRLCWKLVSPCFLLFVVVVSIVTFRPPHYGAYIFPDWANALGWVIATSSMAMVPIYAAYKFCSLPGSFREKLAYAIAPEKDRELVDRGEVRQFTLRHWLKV

SMILES | IC50 [1] [nM] | IC50 [2] [nM] | IC50 [3] [nM]
c1ccc(CN2CCN(CCn3nnnc3C(c3ccccc3)c3ccccc3)CC2)cc1 | 2290 | 4220 | > 10000
Fc1ccc(C(OCCN2CCN(c3ccccc3Cl)CC2)c2ccc(F)cc2)cc1 | 5600 | 1260 | > 10000
O=C(NCCCN1CCC(Cc2ccccc2)CC1)C(c1ccccc1)c1ccccc1 | 1070 | 2210 | > 10000
Fc1ccc(C(OCCN2CCN(c3ncccn3)CC2)c2ccc(F)cc2)cc1 | 1700 | 1620 | 1410
O=C(NCCCN1CCC(Cc2ccccc2)CC1)C(c1ccc(Cl)cc1)c1ccc(Cl)cc1 | 1350 | 2020 | 7670
C(=C\c1ccccc1)/CN1CCN(CCn2nnnc2C(c2ccccc2)c2ccccc2)CC1 | 940 | 1760 | > 10000
C(=C\c1ccccc1)/CN1CCN(CCCn2nnnc2C(c2ccccc2)c2ccccc2)CC1 | 2230 | 1330 | 7500
Fc1ccc(C(OCCN2CCN(c3cccc(Cl)c3)CC2)c2ccc(F)cc2)cc1 | 2750 | 1310 | 4960
Fc1ccc(C(OCCN2CCN(c3ccc(Cl)cc3Cl)CC2)c2ccc(F)cc2)cc1 | 10000 | 3750 | 3910
O=C(NCCN1CCC(Cc2ccccc2)CC1)C(c1ccccc1)c1ccccc1 | 190 | 1680 | > 10000
C(=C\c1ccccc1)/CN1CCN(CCCCn2nnnc2C(c2ccccc2)c2ccccc2)CC1 | 3640 | 318 | 6290
O=C(NCCN1CCC(Cc2ccccc2)CC1)C(c1ccc(Cl)cc1)c1ccc(Cl)cc1 | 630 | 8030 | > 10000
Fc1ccc(C(OCCN2CCN(c3ccccn3)CC2)c2ccc(F)cc2)cc1 | 990 | 603 | 579
Fc1ccc(C(OCCN2CCC(Cc3ccccc3)CC2)c2ccc(F)cc2)cc1 | 6820 | 5860 | 1670
Fc1ccc(C(OCCN2CCN(c3ccc(Cl)cc3)CC2)c2ccc(F)cc2)cc1 | 1390 | 1590 | 6910
Fc1ccc(C(OCCN2CCN(c3ccc(Cl)c(Cl)c3)CC2)c2ccc(F)cc2)cc1 | 4100 | 1320 | 5220
Fc1ccc(C(OCCN2CCN(c3ccccc3)CC2)c2ccc(F)cc2)cc1 | 10000 | 5330 | 1910
c1ccc(CCN2CCN(CCn3nnnc3C(c3ccccc3)c3ccccc3)CC2)cc1 | 680 | 2830 | 4830
Fc1ccc(C(OCCN2CCN(c3cccc(Cl)c3Cl)CC2)c2ccc(F)cc2)cc1 | 3000 | 3000 | 5000

The remaining lines, values ahead:

IC50 [1] [nM] | IC50 [2] [nM] | IC50 [3] [nM] | SMILES
1110 | 400 | 1120 | c1ccc(CCN2CCN(CCCn3nnnc3C(c3ccccc3)c3ccccc3)CC2)cc1
692 | 1470 | 3860 | c1ccc(CCCN2CCN(CCn3nnnc3C(c3ccccc3)c3ccccc3)CC2)cc1
317 | 323 | 1500 | c1ccc(CN2CCN(CCCCn3nnnc3C(c3ccccc3)c3ccccc3)CC2)cc1
310 | 1710 | 7700 | c1ccc(CC2CCN(CCn3nnnc3C(c3ccccc3)c3ccccc3)CC2)cc1
590 | 1530 | 550 | c1ccc(CC2CCN(CCCCn3nnnc3C(c3ccccc3)c3ccccc3)CC2)cc1
608 | 329 | 8000 | c1ccc(CCN2CCN(CCCCn3nnnc3C(c3ccccc3)c3ccccc3)CC2)cc1
292 | 521 | 5050 | c1ccc(CN2CCN(CCCn3nnnc3C(c3ccccc3)c3ccccc3)CC2)cc1
94 | 519 | > 10000 | c1ccc(CC2CCN(CCCn3nnnc3C(c3ccccc3)c3ccccc3)CC2)cc1
1640 | 569 | 8000 | c1ccc(CCCN2CCN(CCCn3nnnc3C(c3ccccc3)c3ccccc3)CC2)cc1
